Reference: patent publication US9126933B2, “Soft PDE4 inhibitors” (Amakem NV, priority 2011, dated 2015)
Values after ≈ are worked out from the molar mass of the structure shown.

How the values were obtained:
[1] = Membrane permeability, Pampa assay; settings: for Papp (Pampa; 10^−6 cm/s): 10 μM in 10 mM PBS pH=7.4, 2% DMSO, 5 hours, room temperature
Method: (§3) The capacity of compounds of the invention to cross a lipophilic membrane was evaluated in a Pampa assay, using an assay plate containing structured layers of phospholipids supported on a PVDF filter (Benton Dickinson). […] Each compound was tested in triplicate and was prepared as a 10 μM solution in 10 mM PBS pH=7.4 buffer containing 2% DMSO. Compounds were dosed in the donor chamber of the assay plate and incubated for 5 hours, at room temperature. Additionally, an equilibrium solution plate containing 6 μM of test compound was prepared. Test compound concentration in donor and acceptor chamber and in the equilibrium plate was quantified using HPLC-MS/MS. The subsequently calculated permeability coefficients were reported as Papp.

[2] = biological target: T1, recombinant PDE4D2 (Homo sapiens, UniProt Q08499); experiment: PDE4 inhibitory activity screening, PDE4D2 (HTRF, cAMP substrate); type: biochemical; settings: 40 nM cAMP, 30 minutes, room temperature
T1 construct: host or cells: Sf9 insect cells
T1 sequence (Q08499 303-809 limits assumed): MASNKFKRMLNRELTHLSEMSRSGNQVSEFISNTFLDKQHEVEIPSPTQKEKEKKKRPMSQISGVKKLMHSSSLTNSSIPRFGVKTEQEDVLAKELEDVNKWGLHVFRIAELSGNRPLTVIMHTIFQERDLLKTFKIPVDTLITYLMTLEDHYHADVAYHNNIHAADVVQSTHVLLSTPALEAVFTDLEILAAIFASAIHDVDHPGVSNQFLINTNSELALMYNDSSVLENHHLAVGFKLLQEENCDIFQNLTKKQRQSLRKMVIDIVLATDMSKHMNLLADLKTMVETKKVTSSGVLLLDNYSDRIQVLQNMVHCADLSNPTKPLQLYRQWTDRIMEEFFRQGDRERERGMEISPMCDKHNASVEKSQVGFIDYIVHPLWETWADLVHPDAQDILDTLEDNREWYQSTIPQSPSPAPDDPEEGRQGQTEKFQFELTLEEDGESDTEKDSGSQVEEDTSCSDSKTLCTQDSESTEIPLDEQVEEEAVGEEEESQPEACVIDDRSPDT
Method: (§1) Various concentrations of the test compounds were incubated with recombinant PDE4B1 or PDE4D2 (isolated from Sf9 cells), using 40 nM cAMP as enzyme substrate. Incubation time was set to 30 minutes. The reaction was carried out at room temperature. At the end of the incubation time, residual cAMP concentration was determined, using HTRF as detection method.
(§2) The IC50 values (concentration causing a half-maximal inhibition of control specific activity) and Hill coefficients (nH) were determined by non-linear regression analysis of the inhibition curves generated with mean replicate values using Hill equation curve fitting (Y=D+[(A−D)/(1+(C/C50)nH)], where Y=specific activity, D=minimum specific activity, A=maximum specific activity, C=compound concentration, C50=IC50 and nH=slope factor).

[3] = Stability towards drug metabolizing enzymes in lung S9; type: in vitro ADME; settings: lung S9 (from smokers); human lung S9, 1 μM compound, cofactors NADPH, UDPGA, PAPS, GSH
Method: A 1 μM solution of the compounds is incubated with a reaction mixture containing lung S9 (from smokers) as well as the cofactors NADPH, UDPGA, PAPS and GSH. Samples are collected at 0, 15, 30 and 60 minutes post incubation. Negative control samples incubated with […] and S9 fraction in the absence of cofactors are run in parallel. By using LC-MS/MS analysis, the percent of compounds remaining at each time point, the metabolic half-life of the compounds (expressed in minutes) and the metabolic half-life of the control compounds are determined.

[4] = Stability assay in human plasma; type: in vitro ADME; settings: 1 μM compound
Method: Compounds are incubated at a concentration of 1 μM in rat (mice/rabbit/dog/rabbit) or human plasma. Samples are taken at fixed time points and the remnant of compound is determined by LC-MS/MS after protein precipitation. Half life of the compound is expressed in minutes.

[5] = biological target: T2, recombinant PDE4B1 (Homo sapiens, UniProt Q07343); experiment: PDE4 inhibitory activity screening, PDE4B1 (HTRF, cAMP substrate); type: biochemical; settings: 40 nM cAMP, 30 minutes, room temperature
T2 construct: host or cells: Sf9 insect cells
T2 sequence (Q07343 whole entry): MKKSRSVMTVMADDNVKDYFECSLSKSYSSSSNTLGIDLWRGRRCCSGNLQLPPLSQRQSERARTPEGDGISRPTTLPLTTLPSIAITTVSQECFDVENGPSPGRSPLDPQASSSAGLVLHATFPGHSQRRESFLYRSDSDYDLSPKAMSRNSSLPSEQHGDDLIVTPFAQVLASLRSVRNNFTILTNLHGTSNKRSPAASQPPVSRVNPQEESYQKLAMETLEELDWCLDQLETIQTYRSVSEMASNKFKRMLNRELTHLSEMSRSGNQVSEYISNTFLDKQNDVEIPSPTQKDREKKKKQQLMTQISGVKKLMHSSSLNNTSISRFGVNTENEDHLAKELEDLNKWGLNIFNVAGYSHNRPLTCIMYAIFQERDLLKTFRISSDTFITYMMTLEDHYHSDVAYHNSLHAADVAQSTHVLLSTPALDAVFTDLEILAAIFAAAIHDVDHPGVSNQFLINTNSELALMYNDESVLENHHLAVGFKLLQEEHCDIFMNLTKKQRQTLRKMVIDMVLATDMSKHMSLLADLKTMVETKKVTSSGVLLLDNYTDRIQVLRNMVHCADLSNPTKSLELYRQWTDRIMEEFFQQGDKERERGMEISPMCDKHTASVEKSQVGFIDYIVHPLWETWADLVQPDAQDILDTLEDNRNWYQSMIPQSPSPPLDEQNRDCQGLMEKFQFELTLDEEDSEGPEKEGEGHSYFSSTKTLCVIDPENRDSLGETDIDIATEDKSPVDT
Method: as §1, §2

[6] = Solubility in aqueous solution (PBS pH 7.4); type: physicochemical; settings: phosphate buffer saline (PBS), pH 7.4, aqueous buffer, kinetic from dmso stock; PBS pH7.4, 24 h, room temperature, theoretical concentration 200 μM
Method: Using a 10 mM stock solution of each compound in 100% DMSO, dilutions were prepared to a theoretical concentration of 200 μM in both phosphate buffer saline (PBS), pH7.4 and in 100% DMSO (as reference). Solutions (triplicates) were incubated at room temperature for 24 h on a shaker at 100 rpm. The solutions were then centrifugated at 13000 rpm for 30 min and the supernatant was further diluted to 2 μM in methanol. The supernatant was then analyzed by LC-MSMS. The concentration of compound in PBS supernatant was determined by comparing the MS peak area with that of the reference solution in DMSO.

[7] = in vitro; settings: PAMPA, pH 7.4
Method: as §3

Papp at 5 h, 10 μM [7] | Structure (SMILES) | Papp at 5 h, 10 μM ([1]; PAMPA, pH 7.4) | IC50 [2] | half-life at 1 μM [3] | half-life at 1 μM [4] | IC50 [5] | solubility at 24 h [6] | Papp (Pampa; 10^−6 cm/s) [1]
 | O=C(Nc1c(Cl)cncc1Cl)c1ccc(OC(F)F)c(OCCCCNC2CCOC2=O)c1 (centres unmarked) [Compound 11, N-(3,5-dichloropyridin-4-yl)-4-(difluoromethoxy)-3-{4-[(2-oxotetrahydrofuran-3-yl)amino]butoxy}benzamide] | 5 ×10⁻⁶ cm/s | < 10 nM | > 60 min | < 15 min | < 10 nM | 10 to 100 µM (≈ 5.04 to 50.4 µg/mL) | 
 | O=C(Nc1c(Cl)cncc1Cl)c1ccc(OC(F)F)c(OCCCCSC2CCOC2=O)c1 (centres unmarked) [Compound 12, N-(3,5-dichloropyridin-4-yl)-4-(difluoromethoxy)-3-{4-[(2-oxotetrahydrofuran-3-yl)thio]butoxy}benzamide] |  | < 10 nM | > 60 min | < 15 min | < 10 nM | 10 to 100 µM (≈ 5.21 to 52.1 µg/mL) | 2.5 10^−6 cm/s
 | O=C(Nc1c(Cl)cncc1Cl)c1ccc(OC(F)F)c(OCCCNC2CCOC2=O)c1 (centres unmarked) [Compound 14] |  | 10 to 100 nM | > 60 min | < 15 min | < 10 nM | 10 to 100 µM (≈ 4.9 to 49 µg/mL) | 7.3 10^−6 cm/s
9.5 ×10⁻⁶ cm/s | CC(C)NCC(O)COc1cccc2ccccc12 (centres unmarked) [Propranolol] |  |  |  |  |  |  | 
0.008 ×10⁻⁶ cm/s | COC(=O)[C@H]1[C@H]2C[C@@H]3c4[nH]c5cc(OC)ccc5c4CCN3C[C@H]2C[C@@H](OC(=O)c2cc(OC)c(OC)c(OC)c2)[C@@H]1OC [Reserpine] |  |  |  |  |  |  | 
